# In ChEMBL document CHEMBL5108030, “Structure activity relationships leading to the identification of the indirect activator of AMPK, R419” (Bioorg Med Chem, 2022):
# How the values were obtained:
# [1] = target: AMP-activated protein kinase, AMPK; experiment: Activation of AMPK in human HepG2 cells assessed as increase in ACC phosphorylation at Ser79 incubated for 1 hr; format: cell-based
# [2] = system: A549; experiment: Antiproliferative activity against human A549 cells assessed as cell growth inhibition incubated for 48 hrs by DAPI staining assay; format: functional, cell-based; conditions: A549, 48 h
# [3] = system: NCI-H1299; experiment: Antiproliferative activity against human NCI-H1299 cells assessed as cell growth inhibition incubated for 48 hrs by DAPI staining assay; format: functional, cell-based; conditions: NCI-H1299, 48 h
# [4] = target: AMP-activated protein kinase, AMPK; experiment: Activation of AMPK in human HepG2 cells assessed as reduction in mitochondrial ATP production incubated for 1 hr; format: cell-based
# [5] = Microsomal stability in human liver microsomes assessed as half life; format: ADME, Microsome
# [6] = target: T1, Cytochrome P450 3A4 (Homo sapiens, UniProt P08684); experiment: Inhibition of CYP3A4 (unknown origin) in presence of NADPH; format: ADME
# [7] = target: T1, Cytochrome P450 3A4; experiment: Inhibition of CYP3A4 (unknown origin); format: ADME
# [8] = target: hERG (KCNH2) (Homo sapiens, UniProt Q12809); experiment: Inhibition of human ERG at 3 uM; format: toxicity
# hERG (KCNH2), sequence (Q12809 whole entry): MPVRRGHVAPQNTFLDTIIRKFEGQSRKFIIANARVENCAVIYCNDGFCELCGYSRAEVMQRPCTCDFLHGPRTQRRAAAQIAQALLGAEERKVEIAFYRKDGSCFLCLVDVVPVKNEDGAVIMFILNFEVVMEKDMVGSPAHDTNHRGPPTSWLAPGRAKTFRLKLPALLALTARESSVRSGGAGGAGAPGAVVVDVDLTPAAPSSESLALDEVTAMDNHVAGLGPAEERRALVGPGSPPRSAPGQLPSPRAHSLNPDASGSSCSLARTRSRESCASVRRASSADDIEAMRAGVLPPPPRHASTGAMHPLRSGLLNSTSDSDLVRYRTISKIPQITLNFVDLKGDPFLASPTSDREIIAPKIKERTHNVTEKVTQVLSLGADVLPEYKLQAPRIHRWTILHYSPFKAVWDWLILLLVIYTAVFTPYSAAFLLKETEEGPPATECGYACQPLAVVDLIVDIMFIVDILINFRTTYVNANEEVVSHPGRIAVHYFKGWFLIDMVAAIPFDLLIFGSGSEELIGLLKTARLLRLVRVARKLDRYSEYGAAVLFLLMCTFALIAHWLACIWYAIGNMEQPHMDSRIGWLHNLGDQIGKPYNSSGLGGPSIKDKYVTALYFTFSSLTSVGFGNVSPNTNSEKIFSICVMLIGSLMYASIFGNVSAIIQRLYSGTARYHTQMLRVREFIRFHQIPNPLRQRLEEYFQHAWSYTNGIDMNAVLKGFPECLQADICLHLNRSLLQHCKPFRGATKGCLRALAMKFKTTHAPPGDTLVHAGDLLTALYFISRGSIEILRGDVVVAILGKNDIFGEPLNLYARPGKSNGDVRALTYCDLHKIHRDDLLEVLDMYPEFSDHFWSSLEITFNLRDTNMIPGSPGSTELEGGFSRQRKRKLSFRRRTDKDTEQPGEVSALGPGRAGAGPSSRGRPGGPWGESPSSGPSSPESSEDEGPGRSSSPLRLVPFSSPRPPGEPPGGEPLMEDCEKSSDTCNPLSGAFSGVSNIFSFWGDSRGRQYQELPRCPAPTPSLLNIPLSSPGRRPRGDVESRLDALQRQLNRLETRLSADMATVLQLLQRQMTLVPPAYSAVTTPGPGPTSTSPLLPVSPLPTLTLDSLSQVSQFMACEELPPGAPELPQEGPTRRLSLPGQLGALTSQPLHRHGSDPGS
# T1 sequence (P08684 whole entry): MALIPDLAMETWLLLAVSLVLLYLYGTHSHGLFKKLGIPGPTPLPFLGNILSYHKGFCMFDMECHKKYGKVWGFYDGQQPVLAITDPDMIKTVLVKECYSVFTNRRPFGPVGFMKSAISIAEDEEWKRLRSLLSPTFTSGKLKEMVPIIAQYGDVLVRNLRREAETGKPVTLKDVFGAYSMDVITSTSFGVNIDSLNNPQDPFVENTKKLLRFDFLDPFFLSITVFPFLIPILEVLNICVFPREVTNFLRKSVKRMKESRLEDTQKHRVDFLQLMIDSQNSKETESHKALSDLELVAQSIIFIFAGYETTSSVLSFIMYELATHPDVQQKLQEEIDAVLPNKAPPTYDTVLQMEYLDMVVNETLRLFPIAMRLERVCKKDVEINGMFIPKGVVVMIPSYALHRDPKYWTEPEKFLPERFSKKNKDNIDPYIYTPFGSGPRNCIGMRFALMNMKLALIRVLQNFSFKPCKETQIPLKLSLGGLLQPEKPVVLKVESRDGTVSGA
Structure (SMILES),EC50 [1] [nM],IC50 [2] [µM],IC50 [3] [µM],IC50 [4] [nM],other results
COc1ccc(C(=O)N2CCN(C(=O)c3ccc(C(=O)NC4CCN(Cc5ccc(C#N)cc5)CC4)nc3)CC2)cc1,175,,,,
COc1ccc(C(=O)C2CCN(C(=O)c3ccc(C(=O)NC4CCN(Cc5ccc(C(=O)N(C)C)cc5)CC4)cn3)CC2)cc1,1050,13.4,> 20,,
COc1ccc(C(=O)C2CCN(C(=O)c3ccc(C(=O)NC4CCN(Cc5ccc(F)cc5)CC4)cn3)CC2)cc1,27,> 20,> 20,2390,half-life [5]: 71 min; inhibition at 3 µM [8]: 64%
O=C(NC1CCN(C(=O)C2CCCCC2)CC1)c1ccc(C(=O)N2CCN(Cc3ccc(F)cc3)CC2)cn1,300,,,,
N#Cc1ccc(C(=O)N2CCC(NC(=O)c3ccc(C(=O)N4CCN(Cc5ccc(F)cc5)CC4)cn3)CC2)cc1,950,,,,
N#Cc1ccc(CN2CCC(NC(=O)c3ccc(C(=O)N4CCC(Oc5ccc(F)cc5F)CC4)nc3)CC2)cc1,13,,,522,inhibition at 3 µM [8]: 36%
CC(C)(c1ccccc1)N1CCC(NC(=O)c2ccc(C(=O)N3CCN(Cc4ccc(F)cc4)CC3)cn2)CC1,2790,,,,
O=C(NC1CCN(Cc2ccccc2)CC1)c1ccc(C(=O)N2CCN(Cc3ccccc3)CC2)cn1,16,,,,
O=C(NC1CCN(Cc2ccc(OC(F)(F)F)cc2)CC1)c1ccc(C(=O)N2CCC(C(=O)c3ccc(N4CCCC4)cc3)CC2)nc1,9,5.06,8.28,1280,
N#Cc1ccc(CN2CCC(NC(=O)c3ccc(C(=O)N4CCC(C(=O)c5ccc(-n6cccn6)cc5)CC4)nc3)CC2)cc1,86,10.4,10.9,,
COc1ccc(S(=O)(=O)N2CCN(C(=O)c3ccc(C(=O)NC4CCN(Cc5ccc(C#N)cc5)CC4)nc3)CC2)cc1,548,,,,
N#Cc1ccc(CN2CCC(NC(=O)c3ccc(C(=O)N4CCC(C(=O)c5ccc(-n6ccnc6)cc5)CC4)nc3)CC2)cc1,312,15.1,15.1,,
N#Cc1ccc(CN2CCC(NC(=O)c3ccc(C(=O)N4CCC(Oc5ccc(C#N)cc5)CC4)nc3)CC2)cc1,92,,,476,
N#Cc1ccc(CN2CCC(NC(=O)c3ccc(C(=O)N4CCC(F)(C(=O)c5ccc(F)cc5)CC4)cn3)CC2)cc1,2,,,16,half-life [5]: 27 min; IC50 [6]: > 10 µM; IC50 [7]: > 10000 nM
N#Cc1ccc(CN2CCC(NC(=O)c3ccc(C(=O)N4CCN(S(=O)(=O)c5ccccc5)CC4)cn3)CC2)cc1,360,,,,
COc1ccc(CN2CCC(NC(=O)c3ccc(C(=O)N4CCC(C(=O)c5ccc(N6CCCC6)cc5)CC4)nc3)CC2)cc1,57,13,8.4,200,
COc1ccc(C(=O)C2CCN(C(=O)c3ccc(C(=O)NC4CCN(Cc5ccc(S(C)(=O)=O)cc5)CC4)cn3)CC2)cc1,,9.14,5.52,,
N#Cc1ccc(CN2CCC(NC(=O)c3ccc(C(=O)N4CCN(C(=O)c5ccccc5)CC4)cn3)CC2)cc1,1390,,,,
N#Cc1ccc(CN2CCC(NC(=O)c3ccc(C(=O)N4CCN(C(=O)c5ccc(F)cc5)CC4)cn3)CC2)cc1,413,,,,
N#Cc1ccc(CN2CCC(NC(=O)c3ccc(C(=O)N4CCC(Cc5ccccc5)CC4)cn3)CC2)cc1,110,,,,
N#Cc1ccc(CN2CCC(NC(=O)c3ccc(C(=O)N4CCN(Cc5ccc(F)cc5)C(=O)C4)cn3)CC2)cc1,466,,,,

# Further compounds by falling EC50 [1], results first:
EC50 [1] [nM],IC50 [2] [µM],IC50 [3] [µM],IC50 [4] [nM],Structure (SMILES),other results
10000,,,,O=C(c1ccc(C(=O)N2CCN(Cc3ccccc3)CC2)nc1)N1CCN(Cc2ccccc2)CC1,
10000,,,,O=C(NC1CCN(Cc2ccccc2)CC1)c1ccc(C(=O)NC2CCN(Cc3ccccc3)CC2)nc1,
2000,6.27,8.7,,CS(=O)(=O)c1ccc(C(=O)C2CCN(C(=O)c3ccc(C(=O)NC4CCN(Cc5ccc(F)cc5)CC4)cn3)CC2)cc1,inhibition at 3 µM [8]: 83%
2000,6.72,7.19,,CS(=O)(=O)c1ccc(C(=O)C2CCN(C(=O)c3ccc(C(=O)NC4CCN(Cc5ccc(C#N)cc5)CC4)cn3)CC2)cc1,
1500,7.16,8.72,,COc1ccc(CN2CCC(NC(=O)c3ccc(C(=O)N4CCC(C(=O)c5ccc(S(C)(=O)=O)cc5)CC4)nc3)CC2)cc1,
1000,8.79,11,,COc1ccc(C(=O)C2CCN(C(=O)c3ccc(C(=O)NC4CCN(Cc5ccc(NC(C)=O)cc5)CC4)cn3)CC2)cc1,
1000,8.99,13.8,,COc1ccc(C(=O)C2CCN(C(=O)c3ccc(C(=O)NC4CCN(Cc5ccc(N)cc5)CC4)cn3)CC2)cc1,
804,,,,N#Cc1ccc(S(=O)(=O)N2CCC(NC(=O)c3ccc(C(=O)N4CCN(Cc5ccc(F)cc5)CC4)cn3)CC2)cc1,
532,,,,CC(C)(C)C(=O)N1CCN(C(=O)c2ccc(C(=O)NC3CCN(Cc4ccc(C#N)cc4)CC3)nc2)CC1,
437,4.82,6.31,,N#Cc1ccc(CN2CCC(NC(=O)c3ccc(C(=O)N4CCC(C(=O)c5ccc(-n6cncn6)cc5)CC4)nc3)CC2)cc1,
393,,,,N#Cc1ccc(CN2CCC(NC(=O)c3ccc(C(=O)N4CCN(S(=O)(=O)c5ccc(F)cc5)CC4)cn3)CC2)cc1,
240,,,,O=C(NC1CCN(C(=O)c2ccccc2)CC1)c1ccc(C(=O)N2CCN(Cc3ccc(F)cc3)CC2)cn1,
129,,,,CC(c1ccccc1)N1CCC(NC(=O)c2ccc(C(=O)N3CCN(Cc4ccc(F)cc4)CC3)cn2)CC1 (centres undefined),
55,,,619,N#Cc1ccc(CN2CCC(NC(=O)c3ccc(C(=O)N4CCC(C(O)c5ccc(F)cc5)CC4)cn3)CC2)cc1 (centres undefined),
41,> 20,> 20,2310,COc1ccc(CN2CCC(NC(=O)c3ccc(C(=O)N4CCC(C(=O)c5ccc(OC)cc5)CC4)nc3)CC2)cc1,inhibition at 3 µM [8]: 70%
35,,,1390,O=C(NC1CCN(Cc2ccccc2)CC1)c1ccc(C(=O)N2CCN(Cc3ccccc3)CC2)nc1,
20,5.05,5.39,1660,N#Cc1ccc(CN2CCC(NC(=O)c3ccc(C(=O)N4CCC(C(=O)c5ccc(N6CCCC6)cc5)CC4)nc3)CC2)cc1,
18,,,1870,N#Cc1ccc(CN2CCC(NC(=O)c3ccc(C(=O)N4CCC(C(=O)c5ccc(F)cc5F)CC4)nc3)CC2)cc1,inhibition at 3 µM [8]: 64%
14,,,33,N#Cc1ccc(CC2CCN(C(=O)c3ccc(C(=O)NC4CCN(Cc5ccc(C#N)cc5)CC4)nc3)CC2)cc1,half-life [5]: 14 min
6,,,1,N#Cc1ccc(CN2CCC(NC(=O)c3ccc(C(=O)N4CCC(C(F)c5ccc(F)cc5)CC4)cn3)CC2)cc1 (centres undefined),half-life [5]: 8 min; IC50 [6]: 9.8 µM
6,,,,CC(C)(c1ccc(F)cc1)N1CCN(C(=O)c2ccc(C(=O)NC3CCN(Cc4ccc(C#N)cc4)CC3)nc2)CC1,
5,,,794,N#Cc1ccc(CN2CCC(NC(=O)c3ccc(C(=O)N4CCC(C(=O)c5ccc(C#N)cc5)CC4)cn3)CC2)cc1,inhibition at 3 µM [8]: 54%
4,,,22,N#Cc1ccc(CN2CCC(NC(=O)c3ccc(C(=O)N4CCC(Oc5ccc(F)cc5F)CC4)cn3)CC2)cc1,
3,,,125,N#Cc1ccc(CN2CCC(NC(=O)c3ccc(C(=O)N4CCC(Oc5ccc(C#N)cc5)CC4)cn3)CC2)cc1,half-life [5]: 30 min; IC50 [6]: 3.5 µM; inhibition at 3 µM [8]: 47%
2,,,21,N#Cc1ccc(CN2CCC(NC(=O)c3ccc(C(=O)N4CCC(C(=O)c5ccc(F)cc5)CC4)cn3)CC2)cc1,
1,,,7,COc1ccc(CC2CCN(C(=O)c3ccc(C(=O)NC4CCN(Cc5ccc(C#N)cc5)CC4)nc3)CC2)cc1,half-life [5]: 46 min; IC50 [6]: > 10 µM; IC50 [7]: 2000 nM
1,,,,CC1(C)CN(C(=O)c2ccc(C(=O)NC3CCN(Cc4ccc(C#N)cc4)CC3)nc2)CCN1Cc1ccc(F)cc1,
